From US8268976B2, “Flea GABA receptor subunit nucleic acid molecules” (Heska Corporation, priority 2000, dated 2012)
Like-named read-outs stand apart in the source and are kept apart here.

What was measured:
cat fleas [1] = test: Survival of dieldrin-exposed fleas from the heterozygous population, sorted by sequenced genotype at amino acid 285; format: in vivo, Ctenocephalides felis; conditions: 10 mM and 50 mM dieldrin, pooled
Protocol: The following method was used to determine the genotype of individual fleas. Individual fleas were physically crushed with a pipette tip in a microcentrifuge tube with 30 μl of DNAzol, available from Gibco BRL, Rockville, Md., then heated to 95° C. for 5 minutes. The mixture was centrifuged for 2 minutes, the liquid was removed and DNA was precipitated with ethanol. The precipitated DNA was centrifuged, the ethanol was removed and the pellet was resuspended in 30 μl of distilled water. […] The following PCR thermocycling and reaction conditions were used (1) one cycle of 95° C. for 30 seconds, (2) 35 cycles of 94° C. for 10 seconds, 52° C. for 30 seconds, and 72° C. 30 seconds, in reactions containing 1× AmpliTaq Buffer, 2.0 U AmpliTaq polymerase, available from Perkin Elmer, Foster City, Calif., 0.2 mM dNTP's, and 0.5 uM each primer.
The PCR product was separated by gel electrophoresis and purified using a Qiaquick™ column, available from Qiagen to produce an approximately 240-nucleotide molecule. The 240-nucleotide product was then sequenced using primers 285for and 285rev and dRhodamine terminator chemistry and the sequence was read to determine whether the individual was homozygous for serine or alanine, or a heterozygote.
(§1) Dieldrin was dissolved in dimethylsulfoxide (DMSO) at concentrations ranging from 0.001 mM to 1000 mM. About 1 ul of dissolved dieldrin from each concentration was spotted onto a 6 mm diameter GF/C filter disk (Whatman, Inc. Clifton, N.J.) in the bottom of a 4 ml screw-top glass vial and allowed to air dry for 24 hours. Negative control vials were prepared in the same manner except that no dieldrin was dissolved in the DMSO. Each dieldrin concentration was tested in triplicate for each of the three flea populations. About 25 newly emerged cat fleas were sedated at 4° C. and transferred to each vial. Each vial was sealed with a thin, perforated Teflon septum secured by an open top screw cap and held vertically in the dark. After about 30 hours, the healthy live, moribund, and dead fleas in each vial were counted.

cat fleas [2] = test: Dieldrin filter-disk vial exposure of fleas, mortality (LC50) per flea population; conditions: Ctenocephalides felis, in Felis catus, 30 h, about 1 ul of DMSO solution on filter disk in vial, about 30 hours
Protocol: as §1

## ClC1=C(Cl)[C@]2(Cl)[C@@H]3[C@@H]4C[C@@H]([C@H]5O[C@@H]45)[C@@H]3[C@@]1(Cl)C2(Cl)Cl [dieldrin]
Cat fleas [1]; of 1 homozygous alanine flea
  number of dead fleas: 1
Cat fleas [1]; of 21 homozygous serine fleas
  number of dead fleas: 4
  number of live fleas: 16
  number of moribund fleas: 1
Cat fleas [1]; of 29 heterozygotes
  number of dead fleas: 24
  number of live fleas: 2
  number of moribund fleas: 3
Cat fleas [2]; read-out: LC50 (concentration of dieldrin at which 50% of the fleas were killed), heterozygous alanine/serine flea population (amino acid 285)
  LC50: 1 mM
Cat fleas [2]; read-out: LC50 (concentration of dieldrin at which 50% of the fleas were killed), homozygous alanine flea population (amino acid 285)
  LC50: 0.2 mM
Cat fleas [2]; read-out: LC50 (concentration of dieldrin at which 50% of the fleas were killed), homozygous serine flea population (amino acid 285)
  LC50: 30 mM
